Assay results as given in US8853264B2, “Use of lignan compounds for treating or preventing inflammatory disease” (Newtree Industry Co., Ltd., priority 2005, dated 2014).

Columns and labels:
[1] = Airway hypersensitivity test, allergen-induced asthma; format: in vivo, C57BL/6 (B6) male mice; details: oral administration in corn oil, every day; vs vehicle group; p<0.05
Description: 5 μL of allergen, AP (aspergillus protease, 1 mg/mL, Sigma-Aldrich, St. Louis, Mo.) was mixed with 45 μL of OVA (chicken egg ovalbumin, 0.5 mg/mL, Sigma-Aldrich). After 3 intraperitoneal injections with 4-day intervals, asthma was induced by 2 intranasal challenges with 4-day interval. The intranasal challenge was performed under isoflurane inhalational anesthesia. Macelignan dissolved in corn oil was orally administered every day.
Within 24 hours after the last allergen challenge, the mouse was anesthetized by intraperitoneal injection of 0.1 mg/g sodium pentobarbital. After tracheal intubation, flexiVent (Scireq®, Montreal, Canada) was connected to maintain stable ventilation. Thereafter, striated muscle was relaxed by intravenous (IV) administration of 0.08 mg/kg pancuronium (Sigma-Aldrich). Following airway hypersensitivity test by IV administration of acetylcholine (Sigma-Aldrich), 1 mL of DPBS (Dulbecco's phosphate buffered saline) was injected twice into the intubation tube using a syringe for bronchioalveolar lavage. […]
For airway hypersensitivity test, the mouse was anesthetized using sodium pentobarbital and, after tracheal intubation, flexiVent was connected to maintain stable ventilation. […] Immediately after IV administration of acetylcholine, airway resistance was measured 3 times by snapshot. The mean value was recorded as airway resistance.

[2] = system: PGE2; assay: PGE2 production in macrophages activated by LPS (ELISA); format: cell-based
Description: First, 1×10^6 cells/ml of RAW264.7 cells were inoculated into a 96-well tissue culture plate and left to stand at room temperature for 5 hours. Then, the inventive macelignan was added to the cells at each of concentrations of 1-20 μM and incubated for 2 hours. A negative control group was not treated with anything, and a positive control group was treated with curcumin (isolated from Curcuma longa; Sigma) reported to have PGE2 inhibitory activity. Then, the cells were treated with 1 μg/ml of LPS and cultured for 18 hours. The production of PGE2 in the macrophages was quantified by an assay kit (R&D System Inc, Minneapolis, USA) using an ELISA method (Chen et al., Biochem. Pharmacol., 68: 1089-1100, 2002).

[3] = system: TNF-α mRNA; assay: TNF-α mRNA level in skin lesion (RT-PCR); format: in vivo, NC/Nga mice
Description: In order to induce atopic dermatitis, 100 mg of mite antigen cream was applied on the ear, occipital region and back of NC/Nga mouse (9 to 11 weeks old), except for the negative control group, 3 times a week, 2 hours after the application of 4% SDS solution. Three weeks later, it was observed whether atopic dermatitis was induced by checking skin rash, erythema, cornification, or the like. Atopic dermatitis was induced in all groups except for the negative control group. […] Transepidermal water loss (TEWL), skin hydration and erythema index were measured one day before the end of the test. […]
After the end of the experiment, skin tissue was isolated from the occipital region to the back of the mouse, immersed in liquid nitrogen, pulverized using a mortar, dissolved in 500 μL of TRIzol® (InvitrogenLife Technologies, USA), and then homogenized using a homogenizer in order to measure mRNA level of cytokines in skin lesion. […] After the centrifuge, the supernatant was discarded and the remaining pellets were washed 2 times with 100% ethanol, dried, and then subjected to RNA quantification by spectrophotometry. […]

## COc1cc(C[C@H](C)[C@H](C)Cc2ccc3c(c2)OCO3)ccc1O (single isomer, unassigned) [macelignan]
[1]
  airway hypersensitivity: statistically significant decrease of airway hypersensitivity
[2]; 1-20 μM, LPS 1 μg/ml, 18 hours, effect shown even at 5 μM
  production of PGE2: concentration-dependently inhibited
[2]; positive control curcumin, P<0.05
  PGE2 production-inhibitory effect compared with curcumin: almost similar to the case of treatment with curcumin
[3]; oral administration 50 and 150 mg/kg
  TNF-α mRNA level in skin lesion: statistically significant effect of decreasing TNF-α mRNA level
[3]; topical application 20 and 60 mg/kg
  TNF-α mRNA level in skin lesion: effect of decreasing TNF-α mRNA level
